The source of these data is ChEMBL document CHEMBL5532764, “Identification of SARS-CoV-2 Mpro inhibitors through deep reinforcement learning for de novo drug design and computational chemistry approaches” (RSC Med Chem, 2024).

Usually IC50 stands for the concentration that gives 50% inhibition. A low value points to higher potency.

Sequence of Procathepsin L (P07711 whole entry): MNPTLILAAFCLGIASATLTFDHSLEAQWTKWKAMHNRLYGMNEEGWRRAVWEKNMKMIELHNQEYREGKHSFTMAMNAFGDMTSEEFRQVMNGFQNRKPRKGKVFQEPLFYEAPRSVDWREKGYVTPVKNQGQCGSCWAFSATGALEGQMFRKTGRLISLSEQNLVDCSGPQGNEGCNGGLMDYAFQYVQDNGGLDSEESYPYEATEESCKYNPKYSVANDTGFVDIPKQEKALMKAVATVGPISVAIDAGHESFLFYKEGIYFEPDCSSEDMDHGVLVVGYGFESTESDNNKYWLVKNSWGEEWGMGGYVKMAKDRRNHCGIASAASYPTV

The first experiment has as its target Procathepsin L (Homo sapiens, UniProt P07711). The experiment in a line: Inhibition of human liver Cathepsin L using Z-Phe-Arg7-amido-4-methylcoumarin hydrochloride as substrate by FRET assay.
`O=C1N(Cc2ccccc2Cl)CCN1c1cncc2ccc(Cl)cc12` gave a half-inhibitory concentration (IC50) greater than 125 µM.

`O=C(c1cncc2ccc(F)cc12)N1CCN(Cc2ccc(Cl)cc2Cl)CC1` had an IC50 greater than 125 µM.

The molecule `O=C(c1cncc(Cl)c1)N1CCCN(Cc2ccccc2Cl)CC1` gave an IC50 greater than 125 µM.

`N#Cc1ccccc1CN1CCCN(C(=O)c2cncc(Cl)c2)CC1` had a half-inhibitory concentration (IC50) greater than 125 µM.

In the case of `O=C1N[C@@H](Cc2cc(Cl)ccc2F)C(=O)N1c1cncc(F)c1`, the IC50 was greater than 125 µM.

In the case of `O=C(c1cccnc1)N1CCN(Cc2cc(Cl)cc(Cl)c2OC(F)F)CC1`, the IC50 is greater than 125 µM.

The molecule `O=C(Cc1cccnc1)N1CCc2c(Cl)cc(Cl)cc2C1` displayed an IC50 greater than 125 µM.

Molecule `O=C(Nn1cnc2c(F)cc(F)cc21)C1COc2cc(Cl)c(Cl)cc21` (racemic) gave an IC50 of 103 µM.

On to `Cc1cncc(CC(=O)N2CCC[C@H]2c2cccc(Cl)c2)c1`, for which the IC50 is greater than 125 µM.

As for `O=C1N(Cc2ccc(Cl)cc2Cl)CCN1c1cncc2ccccc12`, the IC50 was greater than 125 µM.

Molecule `O=C(c1cccnc1)N1CCN(Cc2cccc(Cl)c2Cl)CC1` registered an IC50 greater than 125 µM.

Molecule `Cc1cncc(CC(=O)N2CCc3cc(Cl)c(Cl)cc3C2)c1` came in with an IC50 greater than 125 µM.

The next experiment deals with Replicase polyprotein 1ab (Severe acute respiratory syndrome coronavirus 2, UniProt P0DTD1).
`O=C(c1cccnc1)N1CCN(Cc2cc(Cl)cc(Cl)c2OC(F)F)CC1` returned an IC50 of 63 µM.

`O=C(c1cccnc1)N1CCN(Cc2cccc(Cl)c2Cl)CC1` gave an IC50 of 63.5 µM.
